This is an account of results in ChEMBL document CHEMBL4420076, “Amylin and calcitonin receptor agonist” (2017).

Numbered stars: 1 amine (or outer) side, 2 acyl side, 3 side chain; on linkers, the order of the positions; unused ones are H or OH. Side chains are listed from the residue outwards. Peptide text beside a SMILES is read from it. * marks the point of attachment. C20 diacid = O=C(O)CCCCCCCCCCCCCCCCCCC(=O)*; γGlu = O=C(O)[C@H](CCC(=O)[*:2])N[*:1]

For data set [1], the target named is T1, Calcitonin receptor (Homo sapiens, UniProt P30988).
T1 sequence (P30988 whole entry): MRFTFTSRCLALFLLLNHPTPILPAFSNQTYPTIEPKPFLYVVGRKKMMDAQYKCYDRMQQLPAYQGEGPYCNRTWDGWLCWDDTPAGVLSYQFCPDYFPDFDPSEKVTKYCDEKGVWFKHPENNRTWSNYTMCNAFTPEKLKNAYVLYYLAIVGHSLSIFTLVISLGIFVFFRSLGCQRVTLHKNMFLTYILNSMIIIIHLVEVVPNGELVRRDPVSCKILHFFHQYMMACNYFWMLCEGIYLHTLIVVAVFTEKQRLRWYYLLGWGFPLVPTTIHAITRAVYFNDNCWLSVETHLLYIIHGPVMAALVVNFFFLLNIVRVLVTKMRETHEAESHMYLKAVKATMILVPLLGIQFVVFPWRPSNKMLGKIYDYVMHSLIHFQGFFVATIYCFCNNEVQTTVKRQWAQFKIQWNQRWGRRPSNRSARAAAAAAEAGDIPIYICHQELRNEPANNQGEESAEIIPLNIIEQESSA
The data set is described as follows: Displacement of [125I]-labeled human calcitonin from human calcitonin receptor expressed in BHK tkts13 cell membranes incubated for 1 hr by scintillation proximity assay.

A short description of data set [2]: Solubility in 100 mM glycylglycine buffer at pH 3.0 incubated for 18 hrs by UPLC analysis. It counts as physicochemical.
Data set [3] deals with T1, Calcitonin receptor. The data set is described as follows: Agonist activity at human calcitonin receptor expressed in BHK570 cells assessed as increase in intracellular cAMP concentration incubated for 3 hrs in absence of albumin by CRE luciferase reporter gene assay. It counts as functional, cell-based.
Data set [4] can be described thus: Solubility in 100 mM bistrispropane buffer at pH 7.0 incubated for 18 hrs by UPLC analysis. It counts as physicochemical.
Data set [5] can be described thus: Stability in pH 7.5 buffer assessed as compound recovery at 1 uM by Thioflavin T based fluorescence assay. The class given is physicochemical. The settings on record: read-out: Drug recovery.
For data set [6], the target named is T2, Amylin receptor AMY3; CALCR/RAMP3 (Rattus norvegicus, UniProt P32214+Q9JJ73).
T2 sequence (P32214 whole entry): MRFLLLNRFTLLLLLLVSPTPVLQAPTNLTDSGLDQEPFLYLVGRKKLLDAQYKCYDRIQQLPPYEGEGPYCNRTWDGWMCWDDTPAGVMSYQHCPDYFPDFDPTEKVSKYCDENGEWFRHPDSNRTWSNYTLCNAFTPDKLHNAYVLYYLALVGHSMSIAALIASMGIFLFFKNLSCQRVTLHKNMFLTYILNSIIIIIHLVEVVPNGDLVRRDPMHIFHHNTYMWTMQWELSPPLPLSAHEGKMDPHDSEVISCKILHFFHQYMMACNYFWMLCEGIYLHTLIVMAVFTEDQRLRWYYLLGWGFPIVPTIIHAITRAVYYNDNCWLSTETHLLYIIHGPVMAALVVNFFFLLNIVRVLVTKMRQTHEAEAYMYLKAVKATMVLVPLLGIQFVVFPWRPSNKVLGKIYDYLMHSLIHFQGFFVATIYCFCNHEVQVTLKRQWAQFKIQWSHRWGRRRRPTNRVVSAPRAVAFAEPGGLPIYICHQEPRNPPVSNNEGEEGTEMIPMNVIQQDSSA
T2 sequence (Q9JJ73 whole entry): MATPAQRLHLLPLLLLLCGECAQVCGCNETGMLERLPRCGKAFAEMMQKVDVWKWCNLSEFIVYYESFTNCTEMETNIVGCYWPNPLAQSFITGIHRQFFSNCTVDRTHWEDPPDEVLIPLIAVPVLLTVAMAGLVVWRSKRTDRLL
Kind of data set: Displacement of [125I]-labeled rat amylin from rat amylin receptor expressed in BHK tkts13 cell membranes co-expressing RAMP3 incubated for 120 mins by scintillation proximity assay.

The nature of data set [7]: Solubility in 100 mM bistrispropane buffer at pH 8.0 incubated for 18 hrs by UPLC analysis. The class given is physicochemical.
Data set [8] can be described thus: Solubility in 100 mM bistrispropane buffer at pH 7.5 incubated for 18 hrs by UPLC analysis. It counts as physicochemical.
Data set [9] in a line: Solubility in 100 mM bistrispropane buffer at pH 6.0 incubated for 18 hrs by UPLC analysis. The class given is physicochemical.
The target in data set [10] is T3, Amylin receptor AMY3; CALCR/RAMP3 (Homo sapiens, UniProt O60896+P30988).
T3 sequence (P30988 whole entry): T1 sequence (P30988 whole entry)
T3 sequence (O60896 whole entry): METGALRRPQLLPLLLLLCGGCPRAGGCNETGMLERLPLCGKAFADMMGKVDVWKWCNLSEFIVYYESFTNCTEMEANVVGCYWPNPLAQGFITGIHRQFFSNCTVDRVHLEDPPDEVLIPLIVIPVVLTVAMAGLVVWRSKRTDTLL
Kind of data set: Agonist activity at human amylin receptor expressed in BHK570 cells co-expressing RAMP3 assessed as increase in intracellular cAMP concentration incubated for 3 hrs in presence of 10% FBS by CRE luciferase reporter gene assay. It counts as functional, cell-based.

For data set [11], the target named is T1, Calcitonin receptor. The data set is described as follows: Agonist activity at human calcitonin receptor expressed in BHK570 cells assessed as increase in intracellular cAMP concentration incubated for 3 hrs in presence of 10% FBS by CRE luciferase reporter gene assay. The class given is functional, cell-based.
Data set [12] can be described thus: Solubility in 100 mM glycylglycine buffer at pH 4.0 incubated for 18 hrs by UPLC analysis. It counts as physicochemical.
The nature of data set [13]: Stability in pH 7.5 buffer assessed as lag time for fibril formation at 1 uM by Thioflavin T based fluorescence assay. The settings on record: pH 7.5, 1 µM. It counts as physicochemical.
Data set [14] is described as follows: Solubility in 100 mM glycylglycine buffer at pH 5.0 incubated for 18 hrs by UPLC analysis. It counts as physicochemical.
The nature of data set [15]: Solubility in 100 mM bistrispropane buffer at pH 6.5 incubated for 18 hrs by UPLC analysis. It counts as physicochemical.
The target in data set [16] is T3, Amylin receptor AMY3; CALCR/RAMP3. Kind of data set: Agonist activity at human amylin receptor expressed in BHK570 cells co-expressing RAMP3 assessed as increase in intracellular cAMP concentration incubated for 3 hrs in absence of albumin by CRE luciferase reporter gene assay. It counts as functional, cell-based.
Data set [17] has as its system Rattus norvegicus. Kind of data set: Reduction in food intake in Sprague-Dawley rat at 3 nmol/kg measured 0 to 24 hrs post dose relative to control. The class given is functional. Set-up: scale not given: the % may be the effect or the level left.
Data set [18] concerns Rattus norvegicus. Kind of data set: Reduction in food intake in Sprague-Dawley rat at 3 nmol/kg measured 24 to 48 hrs post dose relative to control. The class given is functional. Also on record: scale not given: the % may be the effect or the level left.

Take `CC(C)C[C@H](NC(=O)[C@H](C)NC(=O)[C@H](C)NC(=O)[C@@H](NC(=O)[C@H](CO)NC(=O)[C@H](CC(C)C)NC(=O)[C@H](CCC(=O)O)NC(=O)[C@H](CO)NC(=O)[C@H](C)N)[C@@H](C)O)C(=O)NCC(=O)N[C@@H](CCCNC(=N)N)C(=O)N[C@@H](CC(C)C)C(=O)N[C@@H](CO)C(=O)N[C@@H](C)C(=O)N[C@@H](CCC(=O)O)C(=O)N[C@@H](CC(C)C)C(=O)N[C@@H](Cc1cnc[nH]1)C(=O)N[C@@H](CCCCNC(=O)CC[C@H](NC(=O)CCCCCCCCCCCCCCCCCCC(=O)O)C(=O)O)C(=O)N[C@@H](CC(C)C)C(=O)N[C@@H](C)C(=O)N[C@H](C(=O)N[C@@H](CC(C)C)C(=O)N1CCC[C@H]1C(=O)N[C@@H](CCCNC(=N)N)C(=O)N[C@H](C(=O)N[C@@H](CCC(=O)O)C(=O)N[C@H](C(=O)NCC(=O)N[C@@H](CO)C(=O)NCC(=O)N[C@@H](CO)C(=O)N1CCC[C@H]1C(N)=O)[C@@H](C)O)[C@@H](C)O)[C@@H](C)O` (H-ASELSTAALGRLSAELHK([γGlu-C20 diacid])LATLPRTETGSGSP-NH2): the IC50 at Calcitonin receptor [1] is 0.085 nM; in data set [6] it was 0.455 nM. Moreover, the solubility at 18 h in [2], in [4], in data set [7], in data set [8], in data set [9] and in data set [12] was ≥ 200 µM each time. Further, the solubility at 18 h in data set [14] and in data set [15] was ≥ 200 µM each time. Further, the EC50 at Calcitonin receptor [3] was 0.019 nM; in data set [10], 0.049 nM; at Calcitonin receptor [11], 0.028 nM. Besides, in data set [5], the remaining at 1 µM worked out at 100%. In addition, the Time in [13] was > 45 h.

In the case of `CC(C)C[C@H](NC(=O)[C@H](C)NC(=O)[C@H](C)NC(=O)[C@@H](NC(=O)[C@H](CO)NC(=O)[C@H](CC(C)C)NC(=O)[C@H](CCC(=O)O)NC(=O)[C@H](CO)NC(=O)[C@H](C)NC(=O)CC[C@H](NC(=O)CCCCCCCCCCCCCCCCCCC(=O)O)C(=O)O)[C@@H](C)O)C(=O)NCC(=O)N[C@@H](CCCNC(=N)N)C(=O)N[C@@H](CC(C)C)C(=O)N[C@@H](CO)C(=O)N[C@@H](C)C(=O)N[C@@H](CCC(=O)O)C(=O)N[C@@H](CC(C)C)C(=O)N[C@@H](Cc1cnc[nH]1)C(=O)N[C@@H](CCC(=O)O)C(=O)N[C@@H](CC(C)C)C(=O)N[C@@H](C)C(=O)N[C@H](C(=O)N[C@@H](CC(C)C)C(=O)N1CCC[C@H]1C(=O)N[C@@H](CCCNC(=N)N)C(=O)N[C@H](C(=O)N[C@@H](CCC(=O)O)C(=O)N[C@H](C(=O)NCC(=O)N[C@@H](CO)C(=O)NCC(=O)N[C@@H](CO)C(=O)N[C@@H](Cc1ccc(O)cc1)C(N)=O)[C@@H](C)O)[C@@H](C)O)[C@@H](C)O` ({C20 diacid-γGlu}-ASELSTAALGRLSAELHELATLPRTETGSGSY-NH2), the IC50 is 0.113 nM on Calcitonin receptor [1] and 0.029 nM in data set [6]. Further, the solubility at 18 h in data set [2], in data set [4], in data set [7], in data set [8], in data set [9] and in [12] was ≥ 200 µM each time. Moreover, the solubility at 18 h in data set [15] was ≥ 200 µM. The EC50 on Calcitonin receptor [3] is 0.037 nM; in [16], 0.046 nM; in [10], 0.062 nM; on Calcitonin receptor [11], 0.049 nM. In addition, the remaining at 1 µM in [5] turned out to be 100%. Further, in [13], the Time is > 45 h.

Consider `CC(C)C[C@H](NC(=O)CNC(=O)[C@H](CO)NC(=O)[C@H](C)NC(=O)CC[C@H](NC(=O)CCCCCCCCCCCCCCCCCCC(=O)O)C(=O)O)C(=O)N[C@@H](CO)C(=O)N[C@H](C(=O)N[C@@H](C)C(=O)N[C@H](C(=O)N[C@@H](CC(C)C)C(=O)NCC(=O)N[C@@H](CCCCN)C(=O)N[C@@H](CC(C)C)C(=O)N[C@@H](CO)C(=O)N[C@@H](CCC(N)=O)C(=O)N[C@@H](CCC(=O)O)C(=O)N[C@@H](CC(C)C)C(=O)N[C@@H](Cc1cnc[nH]1)C(=O)N[C@@H](CCC(=O)O)C(=O)N[C@@H](CC(C)C)C(=O)N[C@@H](CCC(N)=O)C(=O)N[C@H](C(=O)N[C@@H](Cc1ccc(O)cc1)C(=O)N1CCC[C@H]1C(=O)N1CCC[C@H]1C(=O)N[C@H](C(=O)N[C@@H](CCC(=O)O)C(=O)N[C@H](C(=O)NCC(=O)N[C@@H](CO)C(=O)NCC(=O)N[C@H](C(=O)N[C@@H](Cc1ccc(O)cc1)C(N)=O)[C@@H](C)O)[C@@H](C)O)[C@@H](C)O)[C@@H](C)O)C(C)C)[C@@H](C)O` ({C20 diacid-γGlu}-ASGLSTAVLGKLSQELHELQTYPPTETGSGTY-NH2), for which the Activity in the data set with Rattus norvegicus [17] is on record as 8%; in the data set with Rattus norvegicus [18], 9%. In addition, the IC50 at Calcitonin receptor [1] is 0.651 nM; in data set [6], 0.385 nM. The solubility at 18 h in data set [2], in data set [4], in data set [7], in data set [8], in [9] and in data set [14] was ≥ 200 µM throughout. Also, the solubility at 18 h in data set [15] was ≥ 200 µM. In addition, the EC50 on Calcitonin receptor [3] is 0.015 nM; in data set [16], 0.018 nM; in data set [10], 0.154 nM; at Calcitonin receptor [11], 0.062 nM.
